The subject of series [1] is P. falciparum K1. The series can be described thus: Antiplasmodial SYBR Green assay, multiresistant strain. The class given is cell-based, Plasmodium falciparum. The following applies: for IC50: Plasmodium falciparum; for Antiplasmodial activity: K1 resistant strain, highest dose 10 μM; for Selectivity index K1: ratio between MDL50 and IC50, K1. Here is the method: Freshly synchronized sorbitol ring stages (Lambros and Vanderberg, 1979) were immediately incubated with the test compounds at various concentrations (10-0.152 μM or 1.0-0.0152 μM) previously solubilized in 0.05% dimethyl sulfoxide (DMSO) (v/v). Each test was performed in triplicate in at least two different experiments.
The antiplasmodial activity of the compounds was measured by DNA labeling assay using the fluorescent probe SYBR Green (Smilkstein et al., 2004).
Briefly, plates were centrifuged at 700 g for 5 min in room temperature to remove medium, washed with PBS, and incubated for 30 min with lysis buffer solution and SYBR Green I DNA dye (1:20000). The fluorescence of the uninfected erythrocytes was considered as background. Fluorescence was measured in a fluorimeter at 485/535 nm.
(§1) The half maximum inhibitory concentration of the drug (IC50) was estimated by curve fitting using software and compared with the parasite growth in the compound-free medium.

The subject of a further series is P. falciparum 3D7. Kind of series: Antiplasmodial SYBR Green assay, CQ-sensitive strain. The series is classed as cell-based, Plasmodium falciparum. To be noted: for IC50: Plasmodium falciparum; for Selectivity index 3D7: ratio between MDL50 and IC50, 3D7. Here is the method: Each test was performed in triplicate in at least two different experiments.
Briefly, plates were centrifuged at 700 g for 5 min in room temperature to remove medium, washed with PBS, and incubated for 30 min with lysis buffer solution and SYBR Green I DNA dye (1:20000). The fluorescence of the uninfected erythrocytes was considered as background.
as §1

Another series relates to P. berghei NK65. Kind of series: P. berghei suppression test in mice. The class given is in vivo. To be noted: for Parasitemia % reduction day 5 / Parasitemia % reduction day 7 / Parasitemia % reduction day 9 / Parasitemia % reduction day 11 / Parasitemia % reduction day 13 / Parasitemia % reduction day 15: three days, relative to untreated mice; for Survival of mice compared to the untreated control: Mann-Whitney test. Here is the method: A P. berghei NK65 strain was obtained as a donation from New York University and maintained through weekly blood draws.
On days 5 to 15 after parasite inoculation, blood was taken from the tail of each mouse and used to prepare thin smears that were fixed with methanol, stained with Giemsa and examined microscopically (1000×) to determine parasitemia.
Parasite growth inhibition was determined relative to parasitemia in the untreated mice, considered to be 100% parasite growth. […] The experiments were performed twice.

Series [2] deals with P. falciparum K1. Kind of series: Time course of inhibitory activity, microscopy of synchronized parasites. The class given is cell-based, Plasmodium falciparum. The following applies: 10 times IC50 of 3D7 applied to K1; 0, 12, 24, 36 h. Here is the method:
The time course of inhibitory activity of the CQ analogues was also evaluated. The compounds were incubated at a concentration 10 times higher than the IC50 values obtained for the P. falciparum 3D7 sensitive strain with synchronized parasites. Morphological changes were then observed by microscopy after 0, 12, 24 and 36 hours after synchronization (FIG. 3). Parasites sensitive (3D7 strain) and resistant (K1 strain) to CQ were tested in parallel, and the antimalarial CQ was used as a control.

The test system of the next series is Indochina I. The following applies: resistant strain Indochina I; verapamil; cited from earlier work.
A further series deals with CQ-resistant strains. The following applies: prior art; cited from earlier work.
A further series concerns β-hematin formation. Kind of series: Inhibition of β-hematin formation (lipid-catalysed heme crystallization). The class given is biochemical. Here is the method: Briefly, drug stock solutions were prepared in DMSO, used at a final concentration of up to 30 mM A heme stock (10 mM) was made in DMSO and diluted to […] with 100 mM sodium acetate (pH 4.8).
The plates were incubated at 37° C. for 2 h to allow crystallization, followed by the addition of 100 μL of 200 mM sodium bicarbonate (pH 9.1) to solubilize any remaining monomeric heme. After incubation for 30 min at room temperature, the amount of solubilized monomeric heme was determined by measuring the absorbance at 405 nm.
Finally, 20 μL of 1 M sodium hydroxide was added to the plates to dissolve the crystals formed. The absorbance was read at 405 nm to determine the total amount of heme present in each well.
The inhibition of heme crystallization was determined as a function of the amount of monomeric heme that was not crystallized divided by the total amount of heme present in the test mixture. The results are expressed as IC50 values based on the percentage inhibition of β-hematin formation by compounds GIQ, CEQ, PCQ and DAQ. Each test was performed in triplicate in at least two different experiments.

A further series has as its system BGM-VN. The series can be described thus: Cytotoxicity, MTT assay. The class given is cell-based. The following applies: 24 h incubation. Here is the method: The compounds (20 μL) at various concentrations (400-1.0 μM) were placed in the 96-well plates, incubated with the cultured cells for 24 h under a 5%CO2 atmosphere at 37° C., and then a 3-(4,5-dimethylthiazol-2-yl)-2,5-diphenyltetrazolium bromide (MTT) solution ([…]; 20 μL/well for 3 h) was used to assess mitochondrial viability.
The supernatants were carefully removed and 100 μL of DMSO was added to each well and mixed to solubilize the formazan crystals. The optical density was determined at 570 nm. Cell viability was expressed as the percentage of the control absorbance in the untreated cells after subtracting the appropriate background. Each test was performed in triplicate in at least two different experiments.
On the technique in general: Tetrazolium assays rely on reduction of a dye to a coloured formazan, in cell work by metabolically active cells.

Setting [3] is: K1, read-out: IC50 (nM ± SD) P.falciparum K1.
[4] abbreviates: 3D7, read-out: IC50 (nM ± SD) P.falciparum 3D7.
Setting [5] is: CQ 20 mg/kg, daily for three days.
The mark [6] stands for this setting: 50 mg/kg orally, daily for three days.
[7] abbreviates: multiresistant strain K1, SYBR Green, ± SD, read-out: IC50 (nM ± SD) P.falciparum K1.
Setting [8] is: CQ-sensitive strain 3D7, SYBR Green, ± SD, read-out: IC50 (nM ± SD) P.falciparum 3D7.

Each structure is given as a SMILES string. Values joined by “and” are separate entries in the source; they are usually repeats but may differ in a detail not shown here. Identical values can stand only once. Like-named read-outs stand apart in the source and are kept apart here. Where only a bound is given, the exact number is not on record here.

Consider `CCN(CC)CCCC(C)Nc1ccnc2cc(Cl)ccc12` (stereo not shown) [CQ, chloroquine, reference compound], for which, in the series with P. falciparum K1 [1] (setting [3]), the concentration for half-maximal inhibition (IC50) – broadly, the concentration needed to halve the response being measured – came out at 177 ± 20 nM. For the same compound, in the series with P. falciparum 3D7 (setting [4]), the IC50 was determined as 36 ± 12 nM. In the series with P. berghei NK65 (CQ 20 mg/kg), the “Parasitemia until the last day of evaluation” value is reported as “did not show parasitemia”, the “Survival” value was “survived until the last day of the experiment”, the “Parasitemia % reduction day 5” value is 100% and the “Parasitemia % reduction day 7” value is given as 100%. For the same compound, in the series on P. berghei NK65 (CQ 20 mg/kg), the “Parasitemia % reduction day 9” value stood at 100%, the “Parasitemia % reduction day 11” value turned out to be 100%, the “Parasitemia % reduction day 13” value came to 100% and the “Parasitemia % reduction day 15” value was 100%. In the series with P. berghei NK65 (setting [5]), the Survival is recorded as more than 30, the “Parasitemia day 5” value is 0.00, the “Parasitemia day 7” value was found to be 0.00 and the “Parasitemia day 9” value amounted to 0.00. Besides, in the series on P. berghei NK65 (setting [5]), the “Parasitemia day 11” value was 0.00, the “Parasitemia day 13” value worked out at 0.00 and the “Parasitemia day 15” value is recorded as 0.00. For the same compound, the “Time course / stage of action, morphology” value in the series with P. falciparum K1 [2] is “did not block complete parasite development”. In addition, the “Improvement of IC50 after PfCRT inhibition” value in the series with Indochina I is recorded as 10 ×.
Turning to `CCN(CC)Cc1cc(Nc2ccnc3cc(Cl)ccc23)ccc1O` [AQ], the “Activity against CQ-resistant strains (literature, words)” value in the series with CQ-resistant strains was “cross-resistance with CQ”.
Turning to `CCN(CC)CC#CCNc1ccnc2cc(Cl)ccc12` [DAQ], in the series on P. falciparum K1 [1], the “Antiplasmodial activity” value is “active” and the “Selectivity index K1” value is given as 29620. The IC50 with P. falciparum K1 [1] (setting [3]) was determined as 50 ± 3 nM. In addition, the IC50 in the series on P. falciparum 3D7 (setting [4]) was 46 ± 4 nM. Moreover, the “Selectivity index 3D7” value in the series with P. falciparum 3D7 was determined as 32195. Besides, the “Selectivity index (SI) quoted in text” value in the series with P. falciparum 3D7 (strain not stated) is listed as 55.750. Also, in the series on P. berghei NK65 (setting [6]), the Survival amounted to 28 ± 1, the “Parasitemia day 5” value came out at 0.00, the “Parasitemia day 7” value is given as 0.00 and the “Parasitemia day 9” value worked out at 0.00. In the series on P. berghei NK65 (setting [6]), the “Parasitemia day 11” value turned out to be 0.00, the “Parasitemia day 13” value was 0.77 and the “Parasitemia day 15” value stood at 3.67. In addition, in the series on P. berghei NK65 (50 mg/kg orally), the “Survival of mice compared to the untreated control” value is reported as “significantly higher”, the “Parasitemia % reduction day 5” value came out at 100%, the “Parasitemia % reduction day 7” value amounted to 100% and the “Parasitemia % reduction day 9” value turned out to be 100%. Moreover, in the series on P. berghei NK65 (50 mg/kg orally), the “Parasitemia % reduction day 11” value was determined as 100%, the “Parasitemia % reduction day 13” value is listed as 92% and the “Parasitemia % reduction day 15” value amounted to 82%. The “β-hematin inhibition, comparison” value in the series on β-hematin formation is on record as “lower than that of CQ”. Also, in the series with BGM-VN, the “MLD50 (μM) BGM-VN” value amounted to 1481 ± 39 µM.
For `NCCNc1ccnc2cc(Cl)ccc12` [CEQ], in the series with P. falciparum K1 [1] (setting [7]), the IC50 was 218 ± 44 nM. In the series with P. falciparum 3D7 (setting [8]), the 50% inhibitory concentration (IC50) was 273 ± 12 nM. The “Selectivity index 3D7” value with P. falciparum 3D7 is given as 655. In addition, in the series with P. berghei NK65 (setting [6]), the Survival came to 26 ± 6, the “Parasitemia day 5” value is 0.00, the “Parasitemia day 7” value was 0.00 and the “Parasitemia day 9” value was determined as 0.00. In the series with P. berghei NK65 (setting [6]), the “Parasitemia day 11” value was 0.00, the “Parasitemia day 13” value is reported as 0.57 and the “Parasitemia day 15” value is on record as 4. In the series on P. berghei NK65 (50 mg/kg orally), the “Survival of mice compared to the untreated control” value is on record as “significantly higher”, the “Parasitemia % reduction day 5” value is 100%, the “Parasitemia % reduction day 7” value is reported as 100% and the “Parasitemia % reduction day 9” value was 100%. In addition, in the series on P. berghei NK65 (50 mg/kg orally), the “Parasitemia % reduction day 11” value worked out at 100%, the “Parasitemia % reduction day 13” value amounted to 94% and the “Parasitemia % reduction day 15” value amounted to 80%. For the same compound, in the series with BGM-VN, the “MLD50 (μM) BGM-VN” value stood at 179 ± 40 µM.
Take `CCN(CC)CCCNc1ccnc2cc(Cl)ccc12` [AQ-13]: the “Activity against CQ-resistant strains (literature, words)” value with CQ-resistant strains was “shows antimalarial activity”.
Consider `O=C(O)CNc1ccnc2cc(Cl)ccc12` [GIQ], for which the “Antiplasmodial activity” value with P. falciparum K1 [1] is “inactive”; in the series on P. falciparum 3D7 (3D7, highest dose 10 μM), “inactive”. Further, the IC50 in the series on P. falciparum K1 [1] (setting [7]) and in the series on P. falciparum 3D7 (setting [8]) was more than 10000 nM in each case. In the series with P. falciparum K1 [1], the “Selectivity index K1” value is listed as “Inactive”. In addition, in the series on P. falciparum 3D7, the “Selectivity index 3D7” value is on record as “Inactive”. In addition, the “β-hematin inhibition, comparison” value in the series on β-hematin formation is “least potent”. Further, the “MLD50 (μM) BGM-VN” value in the series with BGM-VN was more than 1000 µM.
With `C#CCNc1ccnc2cc(Cl)ccc12` [PCQ], the concentration for half-maximal inhibition (IC50) in the series on P. falciparum K1 [1] (setting [3]) amounted to 405 ± 32 nM. Further, the “Selectivity index K1” value in the series on P. falciparum K1 [1] was 1005. In the series on P. falciparum 3D7 (setting [4]), the IC50 worked out at 377 ± 14 nM. In addition, the “Selectivity index 3D7” value in the series on P. falciparum 3D7 was 1079. In the series with P. berghei NK65 (setting [6]), the Survival was found to be 17 ± 8, the “Parasitemia day 5” value was found to be 1.04, the “Parasitemia day 7” value is 4.83 and the “Parasitemia day 9” value was 5.75. Besides, in the series with P. berghei NK65 (setting [6]), the “Parasitemia day 11” value amounted to 7.5, the “Parasitemia day 13” value was 7.0 and the “Parasitemia day 15” value was 34.5. Also, in the series with P. berghei NK65 (50 mg/kg orally), the “Survival of mice compared to the untreated control” value is “not increased”, the “Parasitemia % reduction day 7” value is 10%, the “Parasitemia % reduction day 9” value was found to be 8% and the “Parasitemia % reduction day 11” value is 32%. Moreover, in the series on P. berghei NK65 (50 mg/kg orally), the “Parasitemia % reduction day 13” value is 32% and the “Parasitemia % reduction day 15” value is recorded as 0%. Also, the “Parasitemia % reduction day 5” value in the series with P. berghei NK65 (50 mg/kg orally, 50 mg/kg) was 70% and 73%. In the series on BGM-VN, the “MLD50 (μM) BGM-VN” value amounted to 407 ± 185 µM.
